This assay addresses T1, α1β3γ2 GABAA receptor, γ2R408K variant (Homo sapiens, UniProt P14867+P18507+P28472, R408K).
T1 construct: expressed in transfected cells; host or cells: HEK293T
T1 sequence (P14867 28-456): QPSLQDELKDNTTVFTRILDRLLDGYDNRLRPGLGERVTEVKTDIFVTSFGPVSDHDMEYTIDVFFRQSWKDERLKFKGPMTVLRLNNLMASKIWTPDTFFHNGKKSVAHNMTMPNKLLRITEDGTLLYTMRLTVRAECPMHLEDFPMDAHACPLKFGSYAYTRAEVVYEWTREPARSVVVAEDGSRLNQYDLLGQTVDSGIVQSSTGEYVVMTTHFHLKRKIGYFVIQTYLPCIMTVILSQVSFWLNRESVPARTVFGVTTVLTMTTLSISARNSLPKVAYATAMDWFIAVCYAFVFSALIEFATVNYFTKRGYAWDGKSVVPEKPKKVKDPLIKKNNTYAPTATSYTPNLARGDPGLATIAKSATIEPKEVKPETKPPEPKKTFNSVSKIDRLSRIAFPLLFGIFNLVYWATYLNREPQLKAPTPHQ
T1 sequence (P28472 26-473 isoform P28472-2): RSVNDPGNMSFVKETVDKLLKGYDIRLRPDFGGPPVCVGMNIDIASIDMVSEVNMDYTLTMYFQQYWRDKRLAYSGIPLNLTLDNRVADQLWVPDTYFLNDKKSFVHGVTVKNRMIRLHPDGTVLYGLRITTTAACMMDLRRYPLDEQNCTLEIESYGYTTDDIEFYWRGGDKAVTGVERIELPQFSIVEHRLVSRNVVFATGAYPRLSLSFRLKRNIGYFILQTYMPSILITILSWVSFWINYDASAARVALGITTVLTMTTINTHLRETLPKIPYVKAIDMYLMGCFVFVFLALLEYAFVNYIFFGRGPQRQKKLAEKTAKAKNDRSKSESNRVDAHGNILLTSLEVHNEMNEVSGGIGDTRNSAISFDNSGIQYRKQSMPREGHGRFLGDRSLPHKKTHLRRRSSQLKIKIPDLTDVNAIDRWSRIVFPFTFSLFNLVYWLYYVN
T1 sequence (P18507 40-475 R408K): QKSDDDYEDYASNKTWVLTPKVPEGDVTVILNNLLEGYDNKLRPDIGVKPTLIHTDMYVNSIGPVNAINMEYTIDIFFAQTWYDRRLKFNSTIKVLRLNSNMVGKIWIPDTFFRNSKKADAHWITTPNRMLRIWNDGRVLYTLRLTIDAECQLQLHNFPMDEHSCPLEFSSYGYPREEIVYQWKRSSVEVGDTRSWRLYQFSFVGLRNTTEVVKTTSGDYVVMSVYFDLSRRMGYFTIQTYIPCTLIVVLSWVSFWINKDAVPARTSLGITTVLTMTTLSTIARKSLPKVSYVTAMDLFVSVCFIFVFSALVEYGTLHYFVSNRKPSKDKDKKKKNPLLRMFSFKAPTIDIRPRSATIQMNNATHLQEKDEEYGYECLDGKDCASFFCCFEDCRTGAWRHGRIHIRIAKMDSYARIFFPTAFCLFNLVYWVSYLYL
The experiment in a line: Automated patch clamp of GABA-elicited currents (SyncroPatch 384PE), γ2R408K. In kind it is cell-based. The note with it: 1 mM GABA for 5 ms, HEK293T, mean. The protocol: The coding sequences of human α1 (GABRA1, NM_000806), β3 (GABRB3, NM_021912), and γ2 (GABRG2, NM_198904.2) GABAAR subunits were subcloned into the pcDNA3.1 expression vectors (Invitrogen, Waltham, MA, USA).
HEK293T cells (ATCC, CRL-11268) were cultured at 37 °C in a humidified 5% CO2 incubator and maintained in Dulbecco’s modified Eagle’s medium (Invitrogen) supplemented with 10% fetal bovine serum (Life Technologies, Carlsbad, CA, USA), and 100 IU/mL of penicillin/streptomycin (Life Technologies). For the expression experiments, 4 × 10^5 cells were transfected using polyethylenimine (PEI) reagent (40 kD, Polysciences, Warrington, PA, USA) at a DNA: to transfection reagent ratio of 1:2.5 and harvested 36 h after transfection. To express WT and variant α1β3γ2 receptors, a total of 3 µg of α1, β3, and γ2 (WT or mutant) subunit cDNAs were transfected at a ratio of 1:1:1 into 60 mm culture dishes. For the mock-transfected condition, an empty pcDNA3.1 vector was added for a final cDNA transfection amount of 3 μg. For the electrophysiology experiments, 2.5 × 10^5 cells were plated in 100 mm culture dishes and transfected after 24 h with 3 μg of cDNA of each α1, β3, γ2 (wild-type or mutant) subunit, using X-tremeGENE HP DNA transfection Reagent (Roche Diagnostics, Basel, Switzerland), following the manufacturer’s protocol. Recordings were obtained forty-eight hours after transfection.
Whole-cell patch clamp recordings were conducted according to the manufacturer’s standard procedure for the SyncroPatch 384 [31]. […] Using PatchControl 384, electrophysiological parameters, such as seal resistance, capacitance, and series resistance, were determined for each well after the application of a test pulse, and subsequently monitored over time. […] The currents were normalized to the maximal response of each well, and the concentration–response curves were calculated from single-point additions. The EC50 values for each variant or wild-type receptor were calculated across multiple wells for each experimental condition.

Consider `NCCCC(=O)O` [GABA, γ-aminobutyric acid], for which the “IMAX (maximal GABA-evoked peak current)” value came out at 0.22 nA. For the same compound, the Deactivation (-80 mV) is listed as 165.4 ms. The “Rise Time” value (10–90% rise time) is listed as 40.23 ms.

Source of the values: paper PMC10046037, “GABRG2 Variants Associated with Febrile Seizures” (Biomolecules, 2023).
